Earlier results as cited in article PMC8764166, “Phenolic-Rich Plant Extracts With Antimicrobial Activity: An Alternative to Food Preservatives and Biocides?” (Frontiers in Microbiology, 2022).

Key:
[1] = test system: B. subtilis, E. coli, S. aureus, and S. typhimurium; set-up: method as in Dinesh Kumar et al., 2016; details: all test bacteria; ref Dinesh Kumar et al., 2016
Salmonella typhimurium = details: ref Phadungkit and Luanratana, 2006
Escherichia coli = details: ref Adamczak et al., 2020
DNA gyrase = test system: DNA gyrase; set-up: method as in Plaper et al., 2003; details: ref Plaper et al., 2003
Bacillus cereus = test system: Bacillus cereus; set-up: method as in Serra et al. (2008); details: 20 mg·L^−1 quercetin, in grape extract or as solution; ref Serra et al. (2008)
[2] = test system: biofilms with undesirable food spoiling or foodborne pathogenic microorganisms; set-up: method as in the references listed per substance; details: the references listed per substance

Structure (SMILES): O=c1c(O)c(-c2ccc(O)c(O)c2)oc2cc(O)cc(O)c12 [Quercetin]
- time after which antibacterial effect is lost [1]: 2 to 9 h
- MIC against S. typhimurium (Salmonella typhimurium): S. typhimurium 15.6 mg·L^−1
- MIC against E. coli (Escherichia coli): E. coli 0.5 g·L^−1
- DNA gyrase inhibition (DNA gyrase): – DNA gyrase inhibition either by interaction of quercetin with DNA or with ATP binding site of gyrase
- growth of Bacillus cereus (Bacillus cereus): totally inhibited the growth of Bacillus cereus unlike a 20 mg·L^−1 quercetin solution
- activity against biofilms [2]: inhibit formation or to eradicate biofilms
